Here are results for eleven compounds from publication PMC4975872 (Journal of biomolecular screening, 2014).

Where two headings read alike, the source gives them in different places.

The test system of experiment [1] is ERK/β-arrestin interaction. Particulars: 10 μM agonist, Fig. S5.
Experiment [2] has as its system ERK/β-arrestin interaction. The experiment is described as follows: ERK/β-arrestin interaction LinkLight assay, cytokine receptor response. It is filed as cell-based, human. The settings on record: for S/B ratio: 0.1 μg/ml cytokine, Fig. S5; for EC50, stimulation of ERK/β-arrestin interaction signals by cytokines: endogenous cytokine receptors in U2OS cells, serum-free DMEM, 90 min, 37°C.

Experiment [3] has as its system ERK/β-arrestin interaction. It is filed as cell-based, human. Particulars: inhibitor 15 min in serum-free DMEM, then 5% FBS for 90 min.
In experiment [4] the test system is ERK/β-arrestin interaction. Kind of experiment: ERK/β-arrestin interaction LinkLight assay, RTK ligand responses. It is filed as cell-based, human. Particulars: endogenous RTKs in U2OS cells, serum-free DMEM, 90 min, 37°C.
Experiment [5] concerns ERK/β-arrestin interaction. It is filed as cell-based, human. The settings on record: antagonist 15 min, then 1 μM adrenaline for 90 min.
The target in experiment [6] is S1P (endogenous GPCR). It is filed as cell-based, U2OS. Particulars: read-out: EC50 values; n = 3.

`CNC[C@H](O)c1ccc(O)c(O)c1` [adrenaline]: the S/B ratio in experiment [1] was 3.78 fold.

On to IL1β: recombinant human cytokine IL1β, for which, in experiment [2], the S/B ratio is on record as 14.5 fold and the “EC50, stimulation of ERK/β-arrestin interaction signals by cytokines” value was 2.8 ng/mL.

Consider `Cc1nc(Nc2ncc(C(=O)Nc3c(C)cccc3Cl)s2)cc(N2CCN(CCO)CC2)n1` [dasatinib], for which the “inhibition of FBS-induced ERK/β-arrestin interaction signals” value in experiment [3] was “blocked”.

Regarding “EGF: epidermal growth factor, RTK ligand”, the “EC50, stimulation of luciferase signals by RTK ligands” value in experiment [4] stood at 3.75 ng/mL.

Take TNFα: in experiment [2], the S/B ratio is listed as 8.99 fold and the “EC50, stimulation of ERK/β-arrestin interaction signals by cytokines” value stood at 5.65 ng/mL.

With `CN(C)CCN(C)CCc1ccc(Cl)c(Cl)c1` [BD-1047], the “inhibition of GPCR agonist-induced ERK/β-arrestin interaction signals” value in experiment [5] is reported as “inhibit”.

In the case of `O=C(NOCC1CC1)c1ccc(F)c(F)c1Nc1ccc(I)cc1Cl` [CI-1040], the “inhibition of FBS-induced ERK/β-arrestin interaction signals” value in experiment [3] is given as “did not block”.

Broadly, the EC50 is the concentration that produces a half-maximal response. In the case of `CCCCCCCCCCCCC/C=C/[C@@H](O)[C@@H](N)COP(=O)(O)O` [S1P, sphingosine 1-phosphate], in experiment [6], the EC50 came to 337 nM.

“FGF-b: growth factor FGF-basic, RTK ligand”: the “EC50, stimulation of luciferase signals by RTK ligands” value in experiment [4] was found to be 3.87 ng/mL.

Turning to `NCCc1ccc(O)c(O)c1` [dopamine], the S/B ratio in experiment [1] is 3.66 fold.

As for `O=C1Nc2ccc(I)cc2/C1=C/c1cc(Br)c(O)c(Br)c1` [GW5074], the “inhibition of FBS-induced ERK/β-arrestin interaction signals” value in experiment [3] was “did not block”.
